Assay results reported in patent US20240025918A1, “KRAS G12D Inhibitors” (Jacobio Pharmaceuticals Co., Ltd, priority 2020, published 2024).

How the values were obtained:
[1] = biological target: T1, GppNp-loaded HIS-KRAS(G12D, aa 1-169) and cRAF RBD (Homo sapiens, UniProt P01116, G12D); assay: GTP-KRAS and cRAF interaction assay (HTRF); type: biochemical; details: 2 hours at 25° C.
T1 construct: GppNp-loaded HIS-KRAS(G12D, aa 1-169)
Method: GppNp-loaded HIS-KRAS(G12D, aa 1-169) was pre-incubated with a compound in the presence of 200 μM GTP in a 384-well plate (Greiner) for 15 min, then cRAF RBD(GST tag, aa 50-132, CreativeBioMart), MAb Anti GST-d2 (Cisbio) and MAb Anti 6HIS-Tb cryptate Gold (Cisbio) were added to the assay wells (Final concentration: 2.0 nM GppNp-loaded HIS-KRAS(G12D), 100 μM GTP, 35 nM cRAF RBD, 1 μg/mL MAb Anti GST-d2, 52.5 ng/mL MAb Anti 6HIS-Tb cryptate Gold) and incubated for 2 hours at 25° C. Wells containing same percent of DMSO served as vehicle control, and wells without KRAS served as low control. HTRF signals were read on Tecan Spark multimode microplate reader and HTRF ratios were calculated under manufacturer's instructions. The percent of activation of compounds treated wells were normalized between vehicle control and low control (% Activation=(HTRF ratioCompound treated−HTRF ratioLow control)/(HTRF ratioVehicle control−HTRF ratioLow control)*100%). Then the data were analyzed by fitting a 4-parameter logistic model or calculating in Excel to calculate IC50 values.

[2] = biological target: T2, GDP-loaded HIS-KRAS(G12D, aa 1-169) (Homo sapiens, UniProt P01116, G12D); assay: SOS1 catalyzed nucleotide exchange assay (TR-FRET); type: biochemical; details: 4 hours at 25° C.
T2 construct: GDP-loaded HIS-KRAS(G12D, aa 1-169)
Method: GDP-loaded HIS-KRAS(G12D, aa 1-169) was pre-incubated with a compound in the presence of 10 nM GDPin a 384-well plate (Greiner) for 15 min, then purified SOS1 ExD(Flag tag, aa 564-1049), BODIPY™ FL GTP (Invitrogen) and MAb (monoclonal antibody) Anti 6HIS-Tb cryptate Gold (Cisbio) were added to the assay wells (Final concentration: 1.5 nM GDP-loaded HIS-KRAS(G12D), 5 nM GDP, 0.5 μM SOS1 ExD, 80 nM BODIPY™ FL GTP, 52.5 ng/mL MAb Anti 6HIS-Tb cryptate Gold) and incubated for 4 hours at 25° C. Wells containing same percent of DMSO served as vehicle control, and wells without KRAS served as low control. TR-FRET signals were read on Tecan Spark multimode microplate reader. The parameters were F486: Excitation 340 nm, Emission 486 nm, Lag time 100 μs, Integration time 200 μs; F515: Excitation 340 nm, Emission 515 nm, Lag time 100 μs, Integration time 200 μs. TR-FRET ratios for each individual wells were calculated by equation: TR-FRET ratio=(Signal F515/Signal F486)*10000. The percent of activation of compounds treated wells were normalized between vehicle control and low control (% Activation=(TR-FRET ratioCompound treated−TR-FRET ratioLow control)/(TR-FRET ratioVehicle control−TR-FRET ratioLow control)*100%). Then the data were analyzed by fitting a 4-parameter logistic model or calculating in Excel to calculate IC50 values.

AsPC-1 = assay: Cell growth inhibition assay, AsPC-1 (CellTiter-Glo); type: cell-based; details: Homo sapiens, ASPC1, 144 h; AsPC-1 cell viability, 6 days incubation
Method: AsPC-1 cultured in RPMI-1640 medium (Gibco) containing 10% fetal bovine serum (Gibco). Cells in culture medium were plated in 96-well plates at a concentration of 1000 cells/well (100 μL/well) and allowed to attach overnight.
(§1) The next day, compounds were diluted in culture medium and added to the plates. After 6 days incubation in a 37° C./5% CO2 cell incubator, the cell viability was detected by CellTiter-Glo® Luminescent Cell Viability Assay kit (Promega). Luminescent signals were read on Tecan Spark multimode microplate reader and analyzed using a 4-parameter logistic model to calculate IC50 values.

[3] = tested on: AGS cells expressing KRAS G12D; assay: Phospho-ERK1/2(THR202/TYR204) HTRF assay; type: cell-based; details: Homo sapiens; Phospho-ERK1/2 in AGS cells, 2 hours incubation
Method: AGS cells expressing KRAS G12D were cultured in F12K medium (Gibco) containing 10% fetal bovine serum (Gibco). The AGS cells in culture medium were seeded in 96-well plates at a concentration of 40,000 cells/well and then put in a 37° C./5% CO2 cell incubator to incubate overnight. The next day, culture medium was removed and the compound diluted in assay medium (F12K, 0.1% FBS) was added in each well. After 2 hours incubation in a 37° C./5% CO2 cell incubator, the assay medium in 96-well plates was removed, then 50 μL of 1× blocking reagent-supplemented lysis buffer (Cisbio) was added and the plates were incubated at 25° C. for 45 min with shaking. 10 μL of cell lysates from the 96-well plates were transferred to a 384-well plate (Greiner) containing 2.5 μL/well HTRF® pre-mixed antibodies (Cisbio 64AERPEH). Incubate 4 hours at 25° C. and then read HTRF signals on Tecan Spark multimode microplate reader. The data were analyzed using a 4-parameter logistic model to calculate IC50 values.

AGS = assay: Cell growth inhibition assay, AGS (CellTiter-Glo); type: cell-based; details: Homo sapiens, 144 h; AGS cell viability, 6 days incubation
Method: AGS cultured in F12K medium (Gibco) containing 10% fetal bovine serum (Gibco). Cells in culture medium were plated in 96-well plates at a concentration of 500 cells/well (100 μL/well) and allowed to attach overnight.
as §1

T2 sequence (P01116 1-169 isoform P01116-2 G12D): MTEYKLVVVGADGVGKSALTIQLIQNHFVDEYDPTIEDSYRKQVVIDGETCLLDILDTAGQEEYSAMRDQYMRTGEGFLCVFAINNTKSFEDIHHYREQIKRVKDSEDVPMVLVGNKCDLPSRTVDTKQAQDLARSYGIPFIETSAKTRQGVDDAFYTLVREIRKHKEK
T1 sequence (P01116 1-169 isoform P01116-2 G12D): as above

Row | SMILES | IC50 [1] [nM] | IC50 [2] [nM] | IC50 (AsPC-1) [nM] | IC50 [3] [nM] | IC50 (AGS) [nM]
1 | C#Cc1cccc2cc(O)cc(-c3c(F)cc4c(N5CC6CCC(C5)N6)nc(OCC5(CN6CCOC7(CC7)C6)CC5)nc4c3F)c12 (single isomer, unassigned) [Compound 2A] | > 10000 | > 100 |  |  | 
2 | C#Cc1cccc2cc(O)cc(-c3c(F)cc4c(N5CC6CCC(C5)N6)nc(OCC5(CN6CCOC7(CC7)C6)CC5)nc4c3F)c12 (single isomer, unassigned) [Compound 2B] | 41.3 | 1.24 | 13.5 | 30.3 | 0.892
3 | C#Cc1cccc2cc(O)cc(-c3c(F)cc4c(N5CC6CCC(C5)N6)nc(OCC5(CN6CCC7(CC6)CC7(F)F)CC5)nc4c3F)c12 (single isomer, unassigned) [Compound 3A] | 9080 | > 100 |  |  | 
4 | C#Cc1c(F)ccc2cc(O)cc(-c3c(Cl)cc4c(N5CC6CCC(C5)N6)nc(OCC5(CN6CC7CC6CO7)CC5)nc4c3F)c12 (single isomer, unassigned) [Compound 4A] | 1570 | 244 |  |  | 
5 | C#Cc1c(F)ccc2cc(O)cc(-c3c(Cl)cc4c(N5CC6CCC(C5)N6)nc(OCC5(CN6CC7CC6CO7)CC5)nc4c3F)c12 (single isomer, unassigned) [Compound 4B] | 9.19 | 0.31 |  |  | 
6 | C#Cc1cccc2cc(O)cc(-c3c(F)cc4c(N5CC6CCC(C5)N6)nc(OCC5(CN6CC7CC6CO7)CC5)nc4c3F)c12 (single isomer, unassigned) [Compound 13A] | > 10000 | > 100 |  | 271 | 
7 | C#Cc1cccc2cc(O)cc(-c3c(F)cc4c(N5CC6CCC(C5)N6)nc(OCC5(CN6CC7CC6CO7)CC5)nc4c3F)c12 (single isomer, unassigned) [Compound 36A] | 20.2 | > 100 |  |  | 
8 | C#Cc1cccc2cc(O)cc(-c3c(F)cc4c(N5CC6CCC(C5)N6)nc(OCC5(CN6CCC6)CC5)nc4c3F)c12 [Compound 1] | 247 | 5.41 |  | 58.3 | 
9 | C#Cc1cccc2cc(O)cc(-c3c(F)cc4c(N5CC6CCC(C5)N6)nc(OCC5(CN6CCOC7(CC7)C6)CC5)nc4c3F)c12 [Compound 2] | 228 | 26 |  |  | 
10 | C#Cc1cccc2cc(O)cc(-c3c(F)cc4c(N5CC6CCC(C5)N6)nc(OCC5(CN6CCC7(CC6)CC7(F)F)CC5)nc4c3F)c12 [Compound 3] | 115 | 37.1 | 22.8 | 95.5 | 6.76
11 | C#Cc1c(F)ccc2cc(O)cc(-c3c(Cl)cc4c(N5CC6CCC(C5)N6)nc(OCC5(CN6C[C@@H]7C[C@H]6CO7)CC5)nc4c3F)c12 [Compound 4] |  |  |  | 38.8 | 
12 | C#Cc1cccc2cc(O)cc(-c3c(F)cc4c(N5CC6CCC(C5)N6)nc(OCC5(CN6CCCC7(C6)CC7(F)F)CC5)nc4c3F)c12 (centres unmarked) [Compound 5] | 310 | 55.5 | 62.1 |  | 21
13 | C#Cc1cccc2cc(O)cc(-c3c(F)cc4c(N5CC6CCC(C5)N6)nc(OCC5(CN6CCOC7(CCC7)C6)CC5)nc4c3F)c12 [Compound 6] | 437 | 66.2 |  |  | 
14 | C#Cc1cccc2cc(O)cc(-c3c(F)cc4c(N5CC6CCC(C5)N6)nc(OCC5(CN6CC7CC6CO7)CC5)nc4c3F)c12 (centres unmarked) [Compound 13] |  | 12 |  |  | 
15 | C#Cc1cccc2cc(O)cc(-c3c(F)cc4c(N5CC6CCC(C5)N6)nc(OCC5(CN6CCc7ccccc7C6)CC5)nc4c3F)c12 [Compound 16] |  | 27.3 |  |  | 
16 | C#Cc1cccc2cc(O)cc(-c3c(F)cc4c(N5CC6CCC(C5)N6)nc(OCC5(CN6CC7(CC(O)C7)C6)CC5)nc4c3F)c12 [Compound 18] | 77.8 | 0.975 |  |  | 
17 | C#Cc1cccc2cc(O)cc(-c3ccc4c(N5CC6CCC(C5)N6)nc(OCC5(Cc6ccccn6)CC5)nc4c3F)c12 [Compound 23] | > 10000 | > 100 |  |  | 
18 | C#Cc1cccc2cc(O)cc(-c3c(F)cc4c(N5CC6CCC(C5)N6)nc(OCC5(CN6CC(O)C6)CC5)nc4c3F)c12 [Compound 26] | 113 | 2.58 |  | 56.3 | 
19 | C#Cc1cccc2cc(O)cc(-c3c(F)cc4c(N5CC6CCC(C5)N6)nc(OCC5(CN6CC(C)(O)C6)CC5)nc4c3F)c12 [Compound 29] | 71.6 | 3.5 |  | 25 | 
20 | C#Cc1c(F)ccc2cc(O)cc(-c3c(C(C)C)cc4c(N5CC6CCC(C5)N6)nc(OCC5(CN6C[C@@H]7C[C@H]6CO7)CC5)nc4c3F)c12 [Compound 38] | 5.82 | 1.15 |  |  | 
21 | C#Cc1c(F)ccc2cc(O)cc(-c3c(C(F)(F)F)cc4c(N5CC6CCC(C5)N6)nc(OCC5(CN6C[C@@H]7C[C@H]6CO7)CC5)nc4c3F)c12 [Compound 40] | 8.09 | 1.29 |  |  | 
22 | C#Cc1c(F)ccc2cc(O)cc(-c3c(C#N)cc4c(N5CC6CCC(C5)N6)nc(OCC5(CN6C[C@@H]7C[C@H]6CO7)CC5)nc4c3F)c12 [Compound 41] | 7.18 | 1.04 |  |  | 
23 | C#Cc1c(F)ccc2cc(O)cc(-c3c(SC(F)(F)F)cc4c(N5CC6CCC(C5)N6)nc(OCC5(CN6C[C@@H]7C[C@H]6CO7)CC5)nc4c3F)c12 [Compound 42] | 4.04 | 0.97 |  |  | 
24 | CCc1c(F)ccc2cc(O)cc(-c3c(C(F)(F)F)cc4c(N5CC6CCC(C5)N6)nc(OCC5(CN6C[C@@H]7C[C@H]6CO7)CC5)nc4c3F)c12 [Compound 43] | 436 | 4.64 |  |  | 
25 | C#Cc1cccc2cc(O)cc(-c3c(F)cc4c(N5CC6CCC(C5)N6)nc(OCC5(CN6CC7(CCCO7)C6)CC5)nc4c3F)c12 [Compound 44] |  | 35.7 |  |  | 
26 | C#Cc1cccc2cc(O)cc(-c3c(F)cc4c(N5CC6CCC(C5)N6)nc(OCC5(CN6CC7(CC(OC)C7)C6)CC5)nc4c3F)c12 [Compound 49] | 73.2 | 3.95 |  | 46.4 | 
27 | C#Cc1cccc2cc(O)cc(-c3c(F)cc4c(N5CC6CCC(C5)N6)nc(OCC5(CN6CCn7cncc7C6)CC5)nc4c3F)c12 [Compound 53] | 818 | 2.59 |  | 80.3 | 
28 | C#Cc1cccc2cc(O)cc(-c3c(F)cc4c(N5CC6CCC(C5)N6)nc(OCC5(CN6C7COCC6C7)CC5)nc4c3F)c12 [Compound 57] | 439 | 6.81 |  | 46.3 | 
29 | C#Cc1cccc2cc(O)cc(-c3c(F)cc4c(N5CC6CCC(C5)N6)nc(OCC5(CN6Cc7ccccc7C6)CC5)nc4c3F)c12 [Compound 58] | 188 | 2.04 | 91 |  | 34
